Source: the NIST ThermoML archive (doi:10.1016/j.jct.2017.08.032)

CCCC[n+]1ccn(C)c1.O=S(=O)([N-]S(=O)(=O)C(F)(F)F)C(F)(F)F
101.33 kPa, Liquid
Conditions | mass density, Vibrating tube method [kg/m3] | viscosity, Falling or rolling sphere viscometry [mPa·s]
283.15 K | 1448 | 88.06
293.15 K | 1438 | 54.17
303.15 K | 1428 | 35.88
313.15 K | 1418 | 25.32
323.15 K | 1408 | 18.69
333.15 K | 1399 | 14.34
343.15 K | 1390 | 11.22
353.15 K | 1379 | 8.99
363.15 K | 1370 | 7.38

CCC[N+]1(C)CCCCC1.O=S(=O)([N-]S(=O)(=O)C(F)(F)F)C(F)(F)F
101.33 kPa
Conditions | mass density [kg/m3] | viscosity [mPa·s]
283.15 K, Metastable liquid, Falling or rolling sphere viscometry | – | 350.3
283.15 K, Metastable liquid, Vibrating tube method | 1422 | –
293.15 K, Falling or rolling sphere viscometry, Liquid | – | 174.4
293.15 K, Vibrating tube method, Liquid | 1413 | –
303.15 K, Falling or rolling sphere viscometry, Liquid | – | 99.68
303.15 K, Vibrating tube method, Liquid | 1404 | –
313.15 K, Falling or rolling sphere viscometry, Liquid | – | 62.11
313.15 K, Vibrating tube method, Liquid | 1395 | –
323.15 K, Falling or rolling sphere viscometry, Liquid | – | 40.78
323.15 K, Vibrating tube method, Liquid | 1386 | –
333.15 K, Falling or rolling sphere viscometry, Liquid | – | 29.14
333.15 K, Vibrating tube method, Liquid | 1379 | –
343.15 K, Falling or rolling sphere viscometry, Liquid | – | 21.36
343.15 K, Vibrating tube method, Liquid | 1371 | –
353.15 K, Falling or rolling sphere viscometry, Liquid | – | 16.25
353.15 K, Vibrating tube method, Liquid | 1363 | –
363.15 K, Falling or rolling sphere viscometry, Liquid | – | 12.75
363.15 K, Vibrating tube method, Liquid | 1353 | –

CCn1cc[n+](C)c1.O=S(=O)([N-]S(=O)(=O)C(F)(F)F)C(F)(F)F
101.33 kPa, Liquid
Conditions | mass density, Vibrating tube method [kg/m3] | viscosity, Falling or rolling sphere viscometry [mPa·s]
283.15 K | 1531 | 56.17
293.15 K | 1521 | 37.23
303.15 K | 1510 | 26.55
313.15 K | 1500 | 19.6
323.15 K | 1491 | 15.01
333.15 K | 1483 | 11.84
343.15 K | 1474 | 9.57
353.15 K | 1465 | 7.9
363.15 K | 1455 | 6.65

CCCCn1cc[n+](C)c1.CCOS(=O)(=O)[O-] [1-butyl-3-methyl-1H-imidazolium ethyl sulfate]
101.33 kPa, Liquid
Conditions | mass density, Vibrating tube method [kg/m3] | viscosity, Falling or rolling sphere viscometry [mPa·s]
283.15 K | 1193 | 672.1
293.15 K | 1186 | 334
303.15 K | 1180 | 181
313.15 K | 1173 | 110.3
323.15 K | 1166 | 70.37
333.15 K | 1160 | 47.41
343.15 K | 1153 | 33.67
353.15 K | 1146 | 24.88
363.15 K | 1139 | 19.11

CCCCn1cc[n+](C)c1.F[P-](F)(F)(F)(F)F [1-butyl-3-methylimidazolium hexafluorophosphate]
101.33 kPa, Liquid
Conditions | mass density, Vibrating tube method [kg/m3] | viscosity, Falling or rolling sphere viscometry [mPa·s]
283.15 K | 1380 | 779.5
293.15 K | 1372 | 345.1
303.15 K | 1363 | 185.1
313.15 K | 1354 | 109.6
323.15 K | 1346 | 69.7
333.15 K | 1339 | 46.59
343.15 K | 1332 | 32.67
353.15 K | 1323 | 23.85
363.15 K | 1314 | 18.03

CCCCn1cc[n+](C)c1.O=S(=O)([O-])C(F)(F)F [1-butyl-3-methylimidazolium trifluoromethanesulfonate]
101.33 kPa, Liquid
Conditions | mass density, Vibrating tube method [kg/m3] | viscosity, Falling or rolling sphere viscometry [mPa·s]
283.15 K | 1309 | 183.3
293.15 K | 1301 | 106.5
303.15 K | 1293 | 66.58
313.15 K | 1285 | 44.45
323.15 K | 1277 | 31.17
333.15 K | 1270 | 22.81
343.15 K | 1262 | 17.24
353.15 K | 1254 | 13.48
363.15 K | 1247 | 10.73

C[N+](C)(C)CCO.O=S(=O)([N-]S(=O)(=O)C(F)(F)F)C(F)(F)F [choline bis(trifluoromethylsulfonyl)imide]
101.33 kPa
Conditions | mass density [kg/m3] | viscosity [mPa·s]
293.15 K, Metastable liquid, Falling or rolling sphere viscometry | – | 187.9
293.15 K, Metastable liquid, Vibrating tube method | 1539 | –
303.15 K, Metastable liquid, Falling or rolling sphere viscometry | – | 111.5
303.15 K, Metastable liquid, Vibrating tube method | 1530 | –
313.15 K, Falling or rolling sphere viscometry, Liquid | – | 71.05
313.15 K, Vibrating tube method, Liquid | 1520 | –
323.15 K, Falling or rolling sphere viscometry, Liquid | – | 47.94
323.15 K, Vibrating tube method, Liquid | 1511 | –
333.15 K, Falling or rolling sphere viscometry, Liquid | – | 34.09
333.15 K, Vibrating tube method, Liquid | 1504 | –
343.15 K, Falling or rolling sphere viscometry, Liquid | – | 25.6
343.15 K, Vibrating tube method, Liquid | 1495 | –
353.15 K, Falling or rolling sphere viscometry, Liquid | – | 19.61
353.15 K, Vibrating tube method, Liquid | 1486 | –
363.15 K, Falling or rolling sphere viscometry, Liquid | – | 15.43
363.15 K, Vibrating tube method, Liquid | 1476 | –
